Patent US9758485B2, “Compounds for controlling arthropods” (priority 2013, dated 2017)

test system: not listed separately; assay: logP determination by HPLC on a reversed-phase column (C18), EEC Directive 79/831 Annex V.A8; type: physicochemical; conditions: HPLC-MS method a), Table I-T3

| Structure (SMILES) | logP^a) |
| --- | --- |
| O=C(NC1CC1)c1cc(-c2cnn(-c3c(Cl)cc(C(F)(C(F)(F)F)C(F)(F)F)cc3C(F)(F)F)c2)ccc1Cl [I-T3-56] | 4.4 |
| O=C(NC1CC1)c1cc(-c2cnn(-c3c(F)cc(C(F)(C(F)(F)F)C(F)(F)F)cc3F)c2)ccc1Cl [I-T3-61] | 4.0 |
| Cc1cc(C(F)(C(F)(F)F)C(F)(F)F)cc(Cl)c1-n1cc(-c2ccc(Cl)c(C(=O)NC3CC3)c2)cn1 [I-T3-63] | 4.4 |
| Cc1cc(C(F)(C(F)(F)F)C(F)(F)F)cc(Cl)c1-n1cc(-c2ccc(Cl)c(C(=O)NC3(C#N)CC3)c2)cn1 [I-T3-64] | 4.2 |

test system: Rhipicephalus sanguineus; assay: Rhipicephalus sanguineus - in vitro contact tests with adult brown dog ticks; type: in vivo; conditions: application rate 0.2 μg/cm^2, after 48 h (dead or moribund)
Procedure: Rhipicephalus sanguineus—In Vitro Contact Tests with Adult Brown Dog Ticks
For the coating of the test tubes, 9 mg of active ingredient are first dissolved in 1 ml of acetone p.a. and then diluted to the desired concentration with acetone p.a. 250 μl of the solution are distributed homogeneously on the inner walls and base of a 25 ml test tube by turning and rocking on an orbital shaker (rocking rotation at 30 rpm for 2 h). With 900 ppm active ingredient solution and internal surface 44.7 cm^2, given homogeneous distribution, an area-based dose of 5 μg/cm^2 is achieved.
After the solvent has evaporated off, the tubes are populated with 5-10 adult dog ticks (Rhipicephalus sanguineus), sealed with a perforated plastic lid and incubated in a horizontal position in the dark at room temperature and ambient humidity. After 48 h, efficacy is determined. To this end, the ticks are knocked to the floor of the tube and incubated on a hotplate at 45-50° C. for not more than 5 min. Ticks which remain motionless on the floor or move in such an uncoordinated manner that they are unable to deliberately avoid the heat by climbing upwards are considered to be dead or moribund.
An efficacy of 100% means that all the ticks were dead or moribund. 0% efficacy means that none of the ticks had been harmed.

| Structure (SMILES) | efficacy [%] |
| --- | --- |
| Cc1cc(C(F)(C(F)(F)F)C(F)(F)F)cc(Cl)c1-n1cc(-c2ccc(Cl)c(C(=O)NC3(C#N)CC3)c2)cn1 [I-T3-64] | 80 |

same assay, conditions: application rate 5 μg/cm^2, after 48 h (dead or moribund)

| Structure (SMILES) | efficacy [%] |
| --- | --- |
| O=C(NC1CC1)c1cc(-c2cnn(-c3c(Cl)cc(C(F)(C(F)(F)F)C(F)(F)F)cc3C(F)(F)F)c2)ccc1Cl [I-T3-56] | 100 |
| O=C(NC1CC1)c1cc(-c2cnn(-c3c(F)cc(C(F)(C(F)(F)F)C(F)(F)F)cc3F)c2)ccc1Cl [I-T3-61] | 100 |
| Cc1cc(C(F)(C(F)(F)F)C(F)(F)F)cc(Cl)c1-n1cc(-c2ccc(Cl)c(C(=O)NC3CC3)c2)cn1 [I-T3-63] | 100 |

test system: Ctenocephalides felis; assay: Ctenocephalides felis - in vitro contact tests with adult cat fleas; type: in vivo; conditions: application rate 5 μg/cm^2 (=500 g/ha), after 48 h (dead or moribund)
Procedure, shortened: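 Acetone solution coated on test-tube inner walls (900 ppm gives 5 μg/cm^2). After drying, 5-10 adult cat fleas added and kept horizontal at room temperature and ambient humidity. At 48 h fleas knocked down; motionless or uncoordinated ones counted dead/moribund, giving % efficacy.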

| Structure (SMILES) | efficacy [%] |
| --- | --- |
| O=C(NC1CC1)c1cc(-c2cnn(-c3c(Cl)cc(C(F)(C(F)(F)F)C(F)(F)F)cc3C(F)(F)F)c2)ccc1Cl [I-T3-56] | 100 |
| O=C(NC1CC1)c1cc(-c2cnn(-c3c(F)cc(C(F)(C(F)(F)F)C(F)(F)F)cc3F)c2)ccc1Cl [I-T3-61] | 100 |
| Cc1cc(C(F)(C(F)(F)F)C(F)(F)F)cc(Cl)c1-n1cc(-c2ccc(Cl)c(C(=O)NC3CC3)c2)cn1 [I-T3-63] | 100 |
| Cc1cc(C(F)(C(F)(F)F)C(F)(F)F)cc(Cl)c1-n1cc(-c2ccc(Cl)c(C(=O)NC3(C#N)CC3)c2)cn1 [I-T3-64] | 100 |

test system: Amblyomma hebraeum; assay: Amblyomma hebraeum test (tick nymphs, immersion); type: in vivo; conditions: application rate 100 ppm; tick nymphs immersed for one minute; kill after 42 days
Procedure: Solvent: dimethyl sulphoxide
To produce an appropriate active ingredient formulation, 10 mg of active ingredient are mixed with 0.5 ml of dimethyl sulphoxide, and the concentrate is diluted with water to the desired concentration.
Tick nymphs (Amblyomma hebraeum) are placed into perforated plastic beakers and immersed in the desired concentration for one minute. The ticks are transferred on filter paper into a Petri dish and stored in a climate-controlled cabinet.
After 42 days, the kill in % is determined. 100% means that all of the ticks have been killed; 0% means that none of the ticks have been killed.

| Structure (SMILES) | efficacy [%] |
| --- | --- |
| O=C(NC1CC1)c1cc(-c2cnn(-c3c(Cl)cc(C(F)(C(F)(F)F)C(F)(F)F)cc3C(F)(F)F)c2)ccc1Cl [I-T3-56] | 100 |
| O=C(NC1CC1)c1cc(-c2cnn(-c3c(F)cc(C(F)(C(F)(F)F)C(F)(F)F)cc3F)c2)ccc1Cl [I-T3-61] | 80 |
| Cc1cc(C(F)(C(F)(F)F)C(F)(F)F)cc(Cl)c1-n1cc(-c2ccc(Cl)c(C(=O)NC3CC3)c2)cn1 [I-T3-63] | 100 |
| Cc1cc(C(F)(C(F)(F)F)C(F)(F)F)cc(Cl)c1-n1cc(-c2ccc(Cl)c(C(=O)NC3(C#N)CC3)c2)cn1 [I-T3-64] | 100 |

test system: Boophilus microplus; assay: Boophilus microplus - injection test; type: in vivo; conditions: application rate 20 μg/animal; injected into engorged adult female ticks; laying of fertile eggs, after 7 days
Procedure, shortened: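 DMSO formulation, 1 μl intra-abdominal injection, n=5 engorged adult females; climate-controlled room; score fertile eggs d7, unclear eggs held until larval hatch (~42 d); % efficacy, 100% = no fertile eggs.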

| Structure (SMILES) | efficacy [%] |
| --- | --- |
| O=C(NC1CC1)c1cc(-c2cnn(-c3c(Cl)cc(C(F)(C(F)(F)F)C(F)(F)F)cc3C(F)(F)F)c2)ccc1Cl [I-T3-56] | 100 |
| O=C(NC1CC1)c1cc(-c2cnn(-c3c(F)cc(C(F)(C(F)(F)F)C(F)(F)F)cc3F)c2)ccc1Cl [I-T3-61] | 100 |
| Cc1cc(C(F)(C(F)(F)F)C(F)(F)F)cc(Cl)c1-n1cc(-c2ccc(Cl)c(C(=O)NC3CC3)c2)cn1 [I-T3-63] | 100 |
| Cc1cc(C(F)(C(F)(F)F)C(F)(F)F)cc(Cl)c1-n1cc(-c2ccc(Cl)c(C(=O)NC3(C#N)CC3)c2)cn1 [I-T3-64] | 100 |

test system: Boophilus microplus Parkhurst strain, SP-resistant; assay: Boophilus microplus - dip test; type: in vivo; conditions: application rate 100 ppm; dip of engorged adult female ticks; laying of fertile eggs, after 7 days
Procedure, shortened: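 Adult engorged females of SP-resistant Parkhurst strain (8–10 per tube) fully immersed in compound diluted in water from a DMSO solution. Ticks then kept on filter discs in a climate-controlled room; efficacy scored from fertile egg laying at 7 days, with unclear eggs held about 42 days until hatch (100% = no fertile eggs).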

| Structure (SMILES) | efficacy [%] |
| --- | --- |
| O=C(NC1CC1)c1cc(-c2cnn(-c3c(Cl)cc(C(F)(C(F)(F)F)C(F)(F)F)cc3C(F)(F)F)c2)ccc1Cl [I-T3-56] | 100 |
| O=C(NC1CC1)c1cc(-c2cnn(-c3c(F)cc(C(F)(C(F)(F)F)C(F)(F)F)cc3F)c2)ccc1Cl [I-T3-61] | 100 |
| Cc1cc(C(F)(C(F)(F)F)C(F)(F)F)cc(Cl)c1-n1cc(-c2ccc(Cl)c(C(=O)NC3CC3)c2)cn1 [I-T3-63] | 100 |
| Cc1cc(C(F)(C(F)(F)F)C(F)(F)F)cc(Cl)c1-n1cc(-c2ccc(Cl)c(C(=O)NC3(C#N)CC3)c2)cn1 [I-T3-64] | 100 |

test system: Ctenocephalides felis; assay: Ctenocephalides felis - oral test; type: in vivo; conditions: application rate 100 ppm in citrated cattle blood; adult fleas; kill after 2 days
Procedure, shortened: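 Mortality in % was recorded 2 days after about 20 unfed adult cat fleas were allowed to imbibe citrated cattle blood containing the active ingredient through a parafilm membrane. The compound was first taken up in DMSO and then diluted with the blood to the desired concentration.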

| Structure (SMILES) | efficacy [%] |
| --- | --- |
| O=C(NC1CC1)c1cc(-c2cnn(-c3c(Cl)cc(C(F)(C(F)(F)F)C(F)(F)F)cc3C(F)(F)F)c2)ccc1Cl [I-T3-56] | 100 |
| O=C(NC1CC1)c1cc(-c2cnn(-c3c(F)cc(C(F)(C(F)(F)F)C(F)(F)F)cc3F)c2)ccc1Cl [I-T3-61] | 100 |
| Cc1cc(C(F)(C(F)(F)F)C(F)(F)F)cc(Cl)c1-n1cc(-c2ccc(Cl)c(C(=O)NC3CC3)c2)cn1 [I-T3-63] | 100 |
| Cc1cc(C(F)(C(F)(F)F)C(F)(F)F)cc(Cl)c1-n1cc(-c2ccc(Cl)c(C(=O)NC3(C#N)CC3)c2)cn1 [I-T3-64] | 100 |

test system: Lucilia cuprina; assay: Lucilia cuprina test; type: in vivo; conditions: application rate 100 ppm; L1 larvae in minced horsemeat; kill after 2 days
Procedure, shortened: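 About 20 L1 larvae placed on minced horsemeat treated with compound, formulated in DMSO and diluted with water to test concentration. Kill in % scored after 2 days (100% = all larvae dead, 0% = none).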

| Structure (SMILES) | efficacy [%] |
| --- | --- |
| O=C(NC1CC1)c1cc(-c2cnn(-c3c(Cl)cc(C(F)(C(F)(F)F)C(F)(F)F)cc3C(F)(F)F)c2)ccc1Cl [I-T3-56] | 100 |
| O=C(NC1CC1)c1cc(-c2cnn(-c3c(F)cc(C(F)(C(F)(F)F)C(F)(F)F)cc3F)c2)ccc1Cl [I-T3-61] | 100 |
| Cc1cc(C(F)(C(F)(F)F)C(F)(F)F)cc(Cl)c1-n1cc(-c2ccc(Cl)c(C(=O)NC3CC3)c2)cn1 [I-T3-63] | 100 |
| Cc1cc(C(F)(C(F)(F)F)C(F)(F)F)cc(Cl)c1-n1cc(-c2ccc(Cl)c(C(=O)NC3(C#N)CC3)c2)cn1 [I-T3-64] | 100 |

test system: Musca domestica; assay: Musca domestica test; type: in vivo; conditions: application rate 100 ppm; adult houseflies; kill after 2 days
Procedure, shortened: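 Percent kill of adult houseflies is recorded 2 days after exposure, where 100% denotes all flies dead and 0% none. Flies (10 per vessel) feed from a sponge carrying sugar solution and the aqueous-diluted DMSO formulation.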

| Structure (SMILES) | efficacy [%] |
| --- | --- |
| O=C(NC1CC1)c1cc(-c2cnn(-c3c(Cl)cc(C(F)(C(F)(F)F)C(F)(F)F)cc3C(F)(F)F)c2)ccc1Cl [I-T3-56] | 100 |
| O=C(NC1CC1)c1cc(-c2cnn(-c3c(F)cc(C(F)(C(F)(F)F)C(F)(F)F)cc3F)c2)ccc1Cl [I-T3-61] | 100 |
| Cc1cc(C(F)(C(F)(F)F)C(F)(F)F)cc(Cl)c1-n1cc(-c2ccc(Cl)c(C(=O)NC3CC3)c2)cn1 [I-T3-63] | 100 |
| Cc1cc(C(F)(C(F)(F)F)C(F)(F)F)cc(Cl)c1-n1cc(-c2ccc(Cl)c(C(=O)NC3(C#N)CC3)c2)cn1 [I-T3-64] | 100 |
